Experiments:
[1] = tested on: Hippocampal neurons; assay: Effect of inhibitors on BDNF-induced gene transcription (real time RT-PCR); format: cell-based, rat; settings: for Effect of inhibitor on BDNF-induced VGF transcription / Effect of inhibitor on BDNF-induced Arc transcription / Effect of inhibitor on BDNF-induced c-fos transcription / Effect of inhibitor on BDNF-induced EGR-1 transcription: 30 min pre-incubation, K252a 200 nM, U0126 30 μM, PD98059 50 μM, U73122 10 μM, KN93 10 μM, LY294002 30 μM, H-89 1 μM, CC 1 μM; for Effect of inhibitor on BDNF-induced VGF transcription: BDNF 3 Hours; for Effect of inhibitor on BDNF-induced Arc transcription / Effect of inhibitor on BDNF-induced c-fos transcription / Effect of inhibitor on BDNF-induced EGR-1 transcription: BDNF 20 Minutes; for Effect on BDNF-induced transcription of the immediate early genes and VGF: BDNF 20 min for immediate early genes, 3 hr for VGF
Procedure: Signaling cascades involved in BDNF-mediated synaptic strengthening include mitogen-activated protein (MAP) kinase, phospholipase C-γ (PLC-γ) and phosphoinositide-3 kinase (PI3K) (Gottschalk et al. (1999) supra; Minichiello et al. (2002) supra; Ying et al. (2002); Mizuno et al. (2003) supra). To determine whether these transduction pathways are also required for BDNF transcriptional regulation of immediate early genes at 20 minutes and for VGF at 3 hours, pharmacological inhibitors were employed (Table 2).
Effect of inhibitors on BDNF-induced gene transcription. The regulation of BDNF-induced genes in the presence of inhibitors was determined by real time RT-PCR. Neurons were pre-incubated with inhibitors for 30 minutes prior to BDNF treatment (20 minutes for immediate early genes and 3 hours for VGF). […] “blocked” indicates significant reduction of transcription in the presence of inhibitor plus BDNF relative to BDNF alone (p<0.05, ANOVA, n=3).
Each experiment consisted of four groups: vehicle, inhibitor alone, BDNF, BDNF plus inhibitor. Data were normalized to GAPDH and expressed as a fold change of vehicle control.
(§1) cDNA (100 μl) was prepared from 2 μg control or BDNF-treated RNA using random primers and Superscript II reverse transcriptase. 25 μl PCR reactions were then carried out using gene specific primers designed by Primer Express software and TaqMan MGB probes (Applied Biosystems 7000 Sequence Detection System, Foster City, Calif.). Duplicate wells were included for each condition and primer pair. Primers specific to the housekeeping gene, glyceraldehyde-3-phosphate dehydrogenase (GAPDH) were used as an internal control. Data analysis was performed according to the protocol provided by Applied Biosystems.
Hippocampal neurons were pre-incubated with inhibitors for 30 min prior to BDNF treatment (20 min for IEGs and 3 hr for VGF). All inhibitors were purchased from Calbiochem, San Diego, Calif. K252a (200 nM), U0126 (30 μM), PD98059 (50 μM), U73122 (10 μM), KN93 (10 μM), LY294002 (30 μM), H-89 (1 μM) and chelerythrine chloride (CC, 1 μM). Pharmacological inhibitors were tested for efficacy by assaying downregulation of endogenous kinase phosphorylation in cell culture using Western blot (Y. Z. Du and C. F. Dreyfus, personal communication). Each experiment consisted of 4 groups: vehicle, inhibitor alone, BDNF, and BDNF plus inhibitor. Following inhibitor and BDNF treatments, RNA was isolated and subjected to real time RT-PCR as described above.

[2] = tested on: hippocampal cells; assay: Real-time RT-PCR of genes induced by neurotrophin treatment of hippocampal cultures; format: cell-based, rat; parameters: key to NGF effect on Fra2 transcription / NGF effect on CyclinD1 transcription / NGF effect on c-fos transcription / NGF effect on Kv + 1.1 transcription / NGF effect on Na + ch transcription / NGF effect on SgII transcription / NGF effect on SSTR4 transcription / NGF effect on UNC5H2 transcription / NGF effect on NPY transcription / NGF effect on VGF transcription / NGF effect on EGR1 transcription / NGF effect on PTP1B transcription / NGF effect on Arc transcription: UC = unchanged; DOWN: down = decreased
Procedure: The molecular genetics underlying BDNF-evoked plasticity were examined by expression profiling using cDNA microarrays on a population of hippocampal cells in vitro. Synaptic effects of BDNF are observed within 20 minutes of exposure (Levine et al. (1996) supra; Lessmann and Heumann (1998) supra; Schinder et al. (2000) supra). A 3-hour BDNF treatment has been used to identify several genes with roles in synaptic plasticity (Thakker-Varia et al. (2001) supra). Consequently, to reveal immediate, as well as downstream transcriptional changes, both acute (20 minutes) and longer treatment (3 hours) with BDNF were used herein. […] Two independent Atlas arrays were performed using RNA from hippocampal cells treated for either 20 minutes or 3 hours of BDNF (50 ng/mL) and control sister cultures.
Of those genes selected, the regulation of 7% at 20 minutes and 40% at 3 hours were validated, although the magnitude of regulation was not always identical to that observed on the microarray. To focus on genes specifically involved in plasticity, a related neurotrophin, nerve growth factor (NGF), not inducing synaptic plasticity (Levine et al. (1996) supra), served as a control.
Time-mated pregnant rats were sacrificed by CO2 asphyxiation in accordance with institutional guidelines for care and use of animals. Fetuses were removed by caesarean section and transferred to a sterile petri dish with phosphate-buffered saline. Fetal hippocampi were dissected from surrounding brain tissue and meninges were completely removed. Low-density cultures of dissociated embryonic day 18 rat hippocampi (Sprague Dawley from Hilltop Laboratories, Scottsdale, Pa.) were prepared using standard methods (Thakker-Varia et al. (2001) supra). Briefly, pooled tissue from each litter was mechanically dissociated in nutrient medium containing 7.5% fetal bovine serum and plated on poly-D-lysine-coated culture dishes at 350,000 cells/dish. Cultures were maintained in serum-free medium (Thakker-Varia et al., 2001) for 10-14 days and contained pure neurons.
Total cellular RNA was prepared from neuronal cultures treated with either BDNF (50 ng/ml) or vehicle (water) for either 20 min or 3 hr by the guanidine isothiocyanate method and CsCl gradients (Thakker-Varia et al., 2001). DNAse-treated total RNA was prepared from neurotrophin or control hippocampal cultures and reverse transcribed using gene specific primers. Radioactively labeled probes were then hybridized to Atlas Arrays Rat 1.2 (Clontech, Palo Alto, Calif.) according to manufacturer's protocol. Arrays were performed in duplicate with an independent source of RNA. The hybridization pattern was analyzed on a phosphorimager and normalized to the global hybridization signal. Analysis was performed by Clontech using 1.7-fold change as criteria for significance. All transcriptional changes were confirmed by real time RT-PCR on independent samples (see below).
as §1

[3] = NGF as control neurotrophin, 20 minute section of Table 1
[4] = NGF as control neurotrophin, 3 hour section of Table 1

Row | Compound | Effect of inhibitor on BDNF-induced VGF transcription [1] | Effect of inhibitor on BDNF-induced Arc transcription [1] | Effect of inhibitor on BDNF-induced c-fos transcription [1] | Effect on BDNF-induced transcription of the immediate early genes and VGF [1] | Effect of inhibitor on BDNF-induced EGR-1 transcription [1] | other results
1 | COc1ccc2c(c1)CC[C@@H]1[C@@H]2CC[C@]2(C)[C@@H](NCCCCCCN3C(=O)C=CC3=O)CC[C@@H]12 [U73122] | Blocked | Blocked | Blocked | blocked |  | 
2 | COc1cccc(-c2cc(=O)c3ccccc3o2)c1N [PD98059] | Blocked | Blocked | Blocked | blocked | Blocked | 
3 | NGF: related neurotrophin, nerve growth factor, not inducing synaptic plasticity, served as a control |  |  |  |  |  | Effect of NGF on transcription of BDNF-induced genes [2]: did not affect transcription of most genes; NGF effect on Arc transcription [2, 3]: UC; NGF effect on EGR1 transcription [2, 3]: UC; NGF effect on c-fos transcription [2, 3]: UC; NGF effect on Arc transcription [2, 4]: UC; NGF effect on CyclinD1 transcription [2, 4]: UC; NGF effect on EGR1 transcription [2, 4]: UC; NGF effect on Fra2 transcription [2, 4]: DOWN; NGF effect on Kv + 1.1 transcription [2, 4]: UC; NGF effect on NPY transcription [2, 4]: DOWN; NGF effect on Na + ch transcription [2, 4]: UC; NGF effect on PTP1B transcription [2, 4]: UC; NGF effect on SSTR4 transcription [2, 4]: DOWN; NGF effect on SgII transcription [2, 4]: UC; NGF effect on UNC5H2 transcription [2, 4]: UC; NGF effect on VGF transcription [2, 4]: UC; NGF effect on c-fos transcription [2, 4]: UC
4 | O=S(=O)(NCCNC/C=C/c1ccc(Br)cc1)c1cccc2cnccc12 [H-89] |  |  |  | did not affect gene expression |  | 
5 | N#CC(=C(/N)Sc1ccccc1N)/C(C#N)=C(\N)Sc1ccccc1N [U0126] | Blocked | Blocked | Blocked | blocked | Blocked | 
6 | COC(=O)[C@@]1(O)C[C@H]2O[C@]1(C)n1c3ccccc3c3c4c(c5c6ccccc6n2c5c31)C(=O)NC4 [K252a] | Blocked | Blocked | Blocked | blocked | Blocked | 
7 | COc1ccc(S(=O)(=O)N(CCO)c2ccccc2CN(C)C/C=C/c2ccc(Cl)cc2)cc1 [KN93] | Blocked | Blocked | Blocked | blocked | Blocked | 

— patent US20050272040A1, “Method for increasing synaptic growth or plasticity” (priority 2002, published 2005)
